Patent US20220008397A1, “PHARMACEUTICAL COMPOSITION FOR THE TREATMENT OF OCULAR NEOVASCULARISATION” (NOVALIQ GMBH, priority 2019, published 2022)

Legend:
[1] = tested on: BMDMs (bone marrow derived macrophages); experiment: In vitro study using BMDMs (culture of bone marrow derived macrophages), expression of angiogenic growth factors; format: cell-based
choroidal angiogenesis = experiment: In vitro model of choroidal angiogenesis; format: cell-based; conditions: 20 ng/mL and 4 ng/mL
Experimental: The antiangiogenic effect of Tacrolimus was also tested in an in vitro model of choroidal angiogenesis and compared with dexamethasone.

[2] = Tamura et al., 2002; cited from earlier work

C=CC[C@@H]1/C=C(\C)C[C@H](C)C[C@H](OC)[C@H]2O[C@@](O)(C(=O)C(=O)N3CCCC[C@H]3C(=O)O[C@H](/C(C)=C/[C@@H]3CC[C@@H](O)[C@H](OC)C3)[C@H](C)[C@@H](O)CC1=O)[C@H](C)C[C@@H]2OC [Tacrolimus]
Expression of pro-angiogenic growth factors [1]: can reduce the expression of pro-angiogenic growth factors | Dose dependence of the suppression of choroidal angiogenesis in vitro (choroidal angiogenesis; 100 ng/mL): not dose-dependent | Effect on choroidal angiogenesis in vitro (choroidal angiogenesis; tacrolimus at 100 ng/mL): suppressed choroidal angiogenesis | Ability to penetrate tissue barrier upon topical administration [2]: poor ability to penetrate tissue barrier
